# Reference: patent US8129557B2, “Phosphonic acid diester derivative and method for producing thereof” (priority 2005, dated 2012)
# Key:
# E-coli GGT = molecular target: T1, E-coli GGT (Escherichia coli, UniProt P18956); experiment: Second-order rate constant kon of E-coli GGT inactivation (continuous or discontinuous assay); assay type: biochemical, Escherichia coli K-12; details: second-order rate constant for enzyme inactivation; pH 5.5, 25° C.
# T1 construct: was used as a purified enzyme of E-coli GGT; made in house
# T1 sequence (P18956 26-390 limits assumed): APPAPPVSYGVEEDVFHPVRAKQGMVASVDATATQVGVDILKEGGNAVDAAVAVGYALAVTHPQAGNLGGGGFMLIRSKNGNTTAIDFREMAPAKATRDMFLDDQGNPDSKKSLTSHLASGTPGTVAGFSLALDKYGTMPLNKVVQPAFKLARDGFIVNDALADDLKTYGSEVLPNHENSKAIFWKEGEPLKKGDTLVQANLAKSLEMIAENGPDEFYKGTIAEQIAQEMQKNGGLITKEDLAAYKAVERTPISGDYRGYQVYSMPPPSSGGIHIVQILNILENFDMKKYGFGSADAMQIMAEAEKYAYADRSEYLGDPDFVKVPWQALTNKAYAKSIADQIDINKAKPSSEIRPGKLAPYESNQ
# T1 sequence (P18956 391-580 limits assumed): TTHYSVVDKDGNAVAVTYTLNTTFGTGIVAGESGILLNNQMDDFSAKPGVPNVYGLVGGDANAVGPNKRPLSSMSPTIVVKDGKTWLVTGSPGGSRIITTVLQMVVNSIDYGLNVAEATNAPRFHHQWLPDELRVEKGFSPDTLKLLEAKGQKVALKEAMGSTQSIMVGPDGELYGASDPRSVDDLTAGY
# Text: (§1) Purified enzyme of E-coli GGT and crude enzyme of human GGT were employed as GGT samples for an inhibition experiment. The enzyme whose physicochemical properties are described in the Document (Hideyuki Suzuki, Hidehiko Kumagai, Tatsurokukro Tochikura “gamma-Glutamyltranspeptidase from Escherichia coli K-12: Purification and Properties” Journal of Bacteriology, December 1986, Vol. 168, No. 3, p. 1325-1331) was used as a purified enzyme of E-coli GGT. Enzyme [HC-GTP (product number), 603AA (lot number)] manufactured by Asahi Kasei Co., Ltd. was used as a crude enzyme of human GGT. The crude enzyme of human GGT contained a large amount of bovine serum albumin (BSA) to stabilize the enzyme, and the GGT concentration was 1% or lower.
# In the hydrolytic assay of E. coli GGT, 10 μL of a […] enzyme solution was added to a 100 mM succinic acid-sodium hydroxide buffer solution (pH 5.5) in a total volume of 1 mL containing 100 μL of 2 μM substrate aqueous solution. The product, 7-amino-4-methylcoumarin (AMC), released along with the enzyme reaction was traced continuously at 25° C. using a fluorospectrophotometer F-2000 manufactured by Hitachi Ltd. (excitation wavelength: 350 nm, emission wavelength: 440 nm). The AMC concentration was separately measured by forming a calibration curve showing the relation of the fluorescence intensity (F) and the concentration (C) using standard solutions and was calculated from the relational expression (1) of the fluorescence intensity alteration (ΔF) and concentration alteration (ΔC).
# (§2) Next, a second-order rate constant for enzyme inactivation kon was measured by either a continuous assay or a discontinuous assay. Both of the continuous and discontinuous assay for measuring inhibitory activity to GGT were carried out under a pseudo-first-order reaction condition.
# (§3) In the continuous assay, while the temperature was kept at 25° C., the 100 mM succinic acid-sodium hydroxide buffer solutions (pH 5.5) containing an inhibitor in various concentrations and the substrate were preincubated for equilibrium. Herein, 0.2 μM of the substrate was used for the case of E-coli GGT and 0.4 μM of the substrate was used for the case of human GGT. Thereafter, the enzyme solution of the E-coli GGT was added in a manner that the final concentration became 0.04 nM and also the human GGT crude enzyme solution was added in a manner that the final concentration became 5 μg/mL. Accordingly, the reaction was started and the release of AMC (increase of the fluorescence intensity) was continuously traced for 10 minutes.
# (§4) The fluorescence intensity data obtained from the respective curves was applied to the following pseudo-first-order rate equation (2) and the observed pseudo-first-order rate constant for enzyme inactivation (kobs) was calculated by nonlinear regression analysis [Stein, R. L. et al. Biochemistry 26, 2682-2689 (1987)].
# (§5) [Equation 2] [P]=[P]∞[1−exp(−kobst)] (2)
# (§6) When the kobs was plotted against to the inhibitor concentration ([I]), a linear relation was obtained until the maximum extent of the experimentally possible inhibitor concentration. Therefore, the second-order rate constant for enzyme inactivation kon was calculated using the following equation (3) deduced from the kinetic mechanism.
# (§7) [drawing 37] [Equation 3] kobs=kon[I]/(1+[S]/Km) (3)
# (§8) Herein, S denotes 7-(γ-L-glutamylamino)-4-methylcoumarin. The substrate concentration [S] for E-coli GGT is 0.2 μM and the Km value is 0.2 μM. […] The kinetic data was obtained by nonlinear regression analysis using Kaleida graph, a program produced by Synergy Software.
# Further, in the discontinuous assay, an inhibitor in various concentrations was dissolved in 100 mM succinic acid-sodium hydroxide buffer solution (pH 5.5) and the enzyme solution was added to the resulting buffer solutions. […]
# human GGT = molecular target: T2, human GGT (Homo sapiens, UniProt P19440); experiment: Second-order rate constant kon of human GGT inactivation (continuous or discontinuous assay); assay type: biochemical
# T2 construct: purchased Asahi Kasei Co., Ltd. HC-GTP (lot 603AA)
# T2 sequence (P19440 1-380 limits assumed): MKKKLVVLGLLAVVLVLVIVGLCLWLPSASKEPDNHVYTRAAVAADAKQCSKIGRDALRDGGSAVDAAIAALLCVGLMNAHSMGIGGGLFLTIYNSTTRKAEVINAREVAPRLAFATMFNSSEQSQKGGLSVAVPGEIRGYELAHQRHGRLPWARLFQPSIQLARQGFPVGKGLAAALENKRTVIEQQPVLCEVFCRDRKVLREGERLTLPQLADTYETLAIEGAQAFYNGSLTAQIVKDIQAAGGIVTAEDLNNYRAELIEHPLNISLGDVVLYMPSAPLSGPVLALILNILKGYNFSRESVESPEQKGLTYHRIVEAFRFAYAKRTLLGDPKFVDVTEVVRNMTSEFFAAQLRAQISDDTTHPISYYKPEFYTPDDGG
# T2 sequence (P19440 381-569 limits assumed): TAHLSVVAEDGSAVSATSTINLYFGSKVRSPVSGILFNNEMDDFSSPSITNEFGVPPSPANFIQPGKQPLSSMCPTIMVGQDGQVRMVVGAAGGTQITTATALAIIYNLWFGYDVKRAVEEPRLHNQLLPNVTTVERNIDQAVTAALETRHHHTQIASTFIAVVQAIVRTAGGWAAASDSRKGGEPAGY
# Text: as §1
# In the hydrolytic assay of human GGT, the measurement was carried out in the same manner as that in the hydrolytic assay of E-coli GGT, except that the substrate concentration was changed to […] and therefore, the explanation of the common portions was omitted.
# as §2, §3, §4, §5, §6, §7, §8
# Further, in the discontinuous assay, an inhibitor in various concentrations was dissolved in 100 mM succinic acid-sodium hydroxide buffer solution (pH 5.5) and the enzyme solution was added to the resulting buffer solutions. Herein, in the case of E-coli GGT, the enzyme solution was added in a manner that the final concentration became 0.4 nM and also the human GGT crude enzyme solution was added in a manner that the final concentration became 0.5 mg/mL. Accordingly, the reaction of the inhibitor and each GGT was conducted at 25° C. An aliquot (10 μL) of each of the reaction solutions were sampled at every specified time to measure the remaining enzyme activity by the above-mentioned enzyme activation method. The remaining enzyme activity at every time was analyzed by nonlinear regression using the pseudo-first-order rate equation (4) of enzyme inactivation to calculate the value of kobs.
# [Equation 4] αt/α0=exp(−kobst) (4) […]
# [1] = Chemical stability: hydrolysis ratio after storage in water at room temperature; assay type: physicochemical; details: stored in water at room temperature for 12 hours
# Method: Herein, the hydrolysis ratios of the reactive compounds of Examples 1 to 11 were measured after the respective compounds were stored in water at room temperature. In this connection, the compounds other than the compound of Example 10 were stored in water for 12 hours and the compound of Example 10 was stored in water for 112 hours.
# [2] = system: glutamine-dependent asparagine synthetase; experiment: Inhibition of glutamine-dependent asparagine synthetase; assay type: biochemical; details: 10 mM compound, incubated for 2 hours
# Text: Therefore, the phosphonic acid diester derivative (1) specifically reacts on GGT.
compound,measurement,setting,value
"COP(=O)(CCC(N)C(=O)O)Oc1cccc(CC(=O)O)c1 (stereo not drawn) [Example 11, 2-amino-4-{[3-(carboxymethyl)phenyl](methyl)phosphono}butanoic Acid]",kon E-coli GGT,E-coli GGT,150 M^−1S^−1
same,"plot of log kon (human GGT) against pKa of aryl group, FIG. 4",human GGT; position relative to the straight line,deviate upward
same,kon of human GGT inactivation relative to the compound of Example 12,human GGT; ratio of kon 51 to kon 0.33,about 155 times
same,kon Human GGT,"human GGT; second-order rate constant for enzyme inactivation, pH 5.5, 25° C.",51 M^−1S^−1
same,Hydrolysis ratio (%),[1],0%
same,inhibition of the function of glutamine-dependent asparagine synthetase,[2],did not inhibit
